Assay results taken from the supplement of paper PMC10307832.

What follows are cell lines tested with COC1=C(C=C(C=C1)C2=CC3=NC=CN3C(=N2)NC4=C(C=CC=N4)C(=O)N)OC [BAY61-3606] + Nc1nc2[nH]cc(CCc3ccc(C(=O)N[C@@H](CCC(=O)O)C(=O)O)cc3)c2c(=O)[nH]1 [Pemetrexed] (partner 0.2 µM) (assay: relative viability (nuclei count vs DMSO), 5 days (fraction); higher = more cells survive). Conditions: first compound 0.02 µM.
In short: (§1)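 Lung cancer cell lines were pin-tool dosed in 1536-well plates on the day after seeding, with either a lone drug or a fixed anchor-drug dose plus five library-drug doses (not always all listed) in √10 steps. Nuclei were counted on 4× images after 5 days. Relative viability is the ratio of treated-well to vehicle-well nuclei counts, with each value a median of duplicate plates.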

| Cell Line | relative viability |
| --- | --- |
| NCI-H3122 | 0.208 |
| NCI-H441 | 0.263 |
| 201T | 0.358 |
| NCI-H1975 | 0.288 |
| NCI-H2405 | 1.09 |
| NCI-H1355 | 1.1 |
| NCI-H838 | 0.257 |
| CAL-12T | 1.29 |
| NCI-H1666 | 0.84 |
| EPLC-272H | 0.374 |
| NCI-H2347 | 0.429 |
| NCI-H1915 | 0.546 |
| NCI-H1437 | 0.333 |
| NCI-H460 | 0.0615 |
| NCI-H2085 | 0.984 |
| HCC-15 | 0.235 |
| EKVX | 0.439 |
| LCLC-103H | 0.437 |
| NCI-H1650 | 0.351 |
| NCI-H1993 | 0.642 |
| NCI-H23 | 0.64 |
| PC-14 | 0.159 |
| HCC-366 | 0.187 |

Same assay, conditions: first compound 0.06325 µM

| Cell Line | relative viability |
| --- | --- |
| NCI-H3122 | 0.219 |
| NCI-H441 | 0.236 |
| 201T | 0.366 |
| NCI-H1975 | 0.289 |
| HOP-62 | 0.354 |
| NCI-H2405 | 1.08 |
| NCI-H1355 | 1.03 |
| NCI-H838 | 0.256 |
| CAL-12T | 1.38 |
| NCI-H1666 | 0.911 |
| EPLC-272H | 0.299 |
| NCI-H2347 | 0.424 |
| NCI-H1915 | 0.544 |
| NCI-H1437 | 0.342 |
| NCI-H460 | 0.0666 |
| NCI-H2085 | 0.946 |
| HCC-15 | 0.216 |
| EKVX | 0.368 |
| LCLC-103H | 0.441 |
| NCI-H1650 | 0.356 |
| NCI-H1993 | 0.564 |
| NCI-H23 | 0.689 |
| PC-14 | 0.136 |
| HCC-366 | 0.174 |

Same assay, conditions: first compound 0.2 µM

| Cell Line | relative viability |
| --- | --- |
| NCI-H3122 | 0.211 |
| NCI-H441 | 0.271 |
| 201T | 0.339 |
| NCI-H1975 | 0.308 |
| HOP-62 | 0.323 |
| NCI-H2405 | 1.01 |
| NCI-H1355 | 0.977 |
| NCI-H838 | 0.234 |
| CAL-12T | 1.22 |
| NCI-H1666 | 0.81 |
| EPLC-272H | 0.319 |
| NCI-H2347 | 0.438 |
| NCI-H1915 | 0.488 |
| NCI-H1437 | 0.33 |
| NCI-H460 | 0.0787 |
| NCI-H2085 | 0.861 |
| HCC-15 | 0.233 |
| EKVX | 0.401 |
| LCLC-103H | 0.457 |
| NCI-H1650 | 0.42 |
| NCI-H1993 | 0.541 |
| NCI-H23 | 0.547 |
| PC-14 | 0.134 |
| HCC-366 | 0.181 |

Same assay, conditions: first compound 0.6325 µM

| Cell Line | relative viability |
| --- | --- |
| NCI-H3122 | 0.187 |
| NCI-H441 | 0.238 |
| 201T | 0.325 |
| NCI-H1975 | 0.269 |
| HOP-62 | 0.332 |
| NCI-H2405 | 1.01 |
| NCI-H1355 | 1.11 |
| NCI-H838 | 0.254 |
| CAL-12T | 1.22 |
| NCI-H1666 | 0.973 |
| EPLC-272H | 0.374 |
| NCI-H2347 | 0.418 |
| NCI-H1915 | 0.447 |
| NCI-H1437 | 0.31 |
| NCI-H460 | 0.0676 |
| NCI-H2085 | 1.08 |
| HCC-15 | 0.213 |
| EKVX | 0.495 |
| LCLC-103H | 0.462 |
| NCI-H1650 | 0.46 |
| NCI-H1993 | 0.57 |
| NCI-H23 | 0.708 |
| PC-14 | 0.137 |
| HCC-366 | 0.164 |

Same assay, conditions: first compound 2 µM

| Cell Line | relative viability |
| --- | --- |
| NCI-H3122 | 0.201 |
| NCI-H441 | 0.242 |
| 201T | 0.32 |
| NCI-H1975 | 0.247 |
| HOP-62 | 0.249 |
| NCI-H2405 | 0.82 |
| NCI-H1355 | 0.924 |
| NCI-H838 | 0.211 |
| CAL-12T | 0.742 |
| NCI-H1666 | 0.909 |
| EPLC-272H | 0.278 |
| NCI-H2347 | 0.403 |
| NCI-H1915 | 0.453 |
| NCI-H1437 | 0.346 |
| NCI-H460 | 0.0667 |
| NCI-H2085 | 0.898 |
| HCC-15 | 0.204 |
| EKVX | 0.346 |
| LCLC-103H | 0.446 |
| NCI-H1650 | 0.331 |
| NCI-H1993 | 0.461 |
| NCI-H23 | 0.429 |
| PC-14 | 0.148 |
| HCC-366 | 0.165 |

Each cell line was assayed with COc1cccc2c1C(=O)c1c(O)c3c(c(O)c1C2=O)C[C@@](O)(C(=O)CO)C[C@@H]3O[C@H]1C[C@H](N)[C@H](O)[C@H](C)O1 [Doxorubicin] + CC(C)C[C@H](NC(=O)[C@H](Cc1ccccc1)NC(=O)c1cnccn1)B(O)O [Bortezomib] (partner 0.002 µM) in the same assay as above. Conditions: first compound 0.001 µM.
In short: as §1

| Cell Line | relative viability |
| --- | --- |
| NCI-H3122 | 1.04 |
| 201T | 1.06 |
| NCI-H1975 | 0.433 |
| HOP-62 | 0.779 |
| NCI-H2405 | 1 |
| NCI-H1355 | 1.08 |
| NCI-H838 | 0.89 |
| CAL-12T | 1.01 |
| NCI-H1666 | 0.833 |
| EPLC-272H | 0.827 |
| NCI-H2347 | 1.05 |
| NCI-H1915 | 0.994 |
| NCI-H1437 | 0.491 |
| NCI-H460 | 0.981 |
| NCI-H2085 | 0.903 |
| HCC-15 | 0.953 |
| EKVX | 0.956 |
| LCLC-103H | 1.07 |
| NCI-H1650 | 0.215 |
| NCI-H1993 | 1.1 |
| PC-14 | 0.775 |

Same assay, conditions: first compound 0.003162 µM

| Cell Line | relative viability |
| --- | --- |
| NCI-H3122 | 0.97 |
| NCI-H441 | 0.452 |
| 201T | 0.991 |
| NCI-H1975 | 0.364 |
| HOP-62 | 0.864 |
| NCI-H2405 | 1.01 |
| NCI-H1355 | 1.32 |
| NCI-H838 | 1.03 |
| CAL-12T | 1.06 |
| NCI-H1666 | 0.559 |
| EPLC-272H | 0.98 |
| NCI-H2347 | 0.697 |
| NCI-H1915 | 0.943 |
| NCI-H1437 | 0.605 |
| NCI-H460 | 0.964 |
| NCI-H2085 | 1.05 |
| HCC-15 | 1.02 |
| EKVX | 1.04 |
| LCLC-103H | 1.12 |
| NCI-H1650 | 0.185 |
| NCI-H1993 | 0.945 |
| NCI-H23 | 1.06 |
| PC-14 | 0.964 |
| HCC-366 | 1.06 |

Same assay, conditions: first compound 0.01 µM

| Cell Line | relative viability |
| --- | --- |
| NCI-H3122 | 1.02 |
| NCI-H441 | 0.392 |
| 201T | 1.14 |
| NCI-H1975 | 0.321 |
| HOP-62 | 0.657 |
| NCI-H2405 | 0.973 |
| NCI-H1355 | 1.14 |
| NCI-H838 | 0.967 |
| CAL-12T | 0.853 |
| NCI-H1666 | 0.476 |
| EPLC-272H | 0.897 |
| NCI-H2347 | 0.955 |
| NCI-H1915 | 0.927 |
| NCI-H1437 | 0.472 |
| NCI-H460 | 0.244 |
| NCI-H2085 | 0.907 |
| HCC-15 | 0.923 |
| EKVX | 1.06 |
| LCLC-103H | 1.08 |
| NCI-H1650 | 0.187 |
| NCI-H1993 | 1.06 |
| NCI-H23 | 0.93 |
| PC-14 | 0.861 |
| HCC-366 | 1.05 |

Same assay, conditions: first compound 0.03162 µM

| Cell Line | relative viability |
| --- | --- |
| NCI-H3122 | 1.01 |
| NCI-H441 | 0.295 |
| 201T | 1.15 |
| NCI-H1975 | 0.226 |
| HOP-62 | 0.767 |
| NCI-H2405 | 0.994 |
| NCI-H1355 | 1.28 |
| NCI-H838 | 0.384 |
| CAL-12T | 0.567 |
| NCI-H1666 | 0.302 |
| EPLC-272H | 1.05 |
| NCI-H2347 | 0.908 |
| NCI-H1915 | 0.94 |
| NCI-H1437 | 0.205 |
| NCI-H460 | 0.0223 |
| NCI-H2085 | 0.709 |
| HCC-15 | 0.623 |
| EKVX | 0.994 |
| LCLC-103H | 1.14 |
| NCI-H1650 | 0.185 |
| NCI-H1993 | 0.634 |
| NCI-H23 | 0.514 |
| PC-14 | 0.979 |
| HCC-366 | 0.326 |

Same assay, conditions: first compound 0.1 µM

| Cell Line | relative viability |
| --- | --- |
| NCI-H3122 | 0.957 |
| NCI-H441 | 0.315 |
| 201T | 1.05 |
| NCI-H1975 | 0.165 |
| HOP-62 | 0.632 |
| NCI-H2405 | 0.994 |
| NCI-H1355 | 1.29 |
| NCI-H838 | 0.17 |
| CAL-12T | 0.307 |
| NCI-H1666 | 0.272 |
| EPLC-272H | 0.931 |
| NCI-H2347 | 0.692 |
| NCI-H1915 | 1 |
| NCI-H1437 | 0.185 |
| NCI-H460 | 0.0093 |
| NCI-H2085 | 0.716 |
| HCC-15 | 0.636 |
| EKVX | 0.591 |
| LCLC-103H | 1.12 |
| NCI-H1650 | 0.168 |
| NCI-H1993 | 0.439 |
| NCI-H23 | 0.567 |
| PC-14 | 0.94 |
